In paper PMC11320734 (ACS Pharmacology & Translational Science, 2024):
Values after ≈ are worked out from the molar mass of the structure shown. Read-outs that look alike come from different tables or passages of the source.

Experiments:
[1] = system: UUO-induced kidney fibrosis; test: Unilateral ureteral obstruction (UUO) model of kidney fibrosis; type: in vivo, Sprague–Dawley rats
Procedure: In the ischemia/reperfusion (I/R) model of acute kidney injury (AKI),[47],[48] the compounds were administered orally by gavage to C57BL/6 mice 30 min before ischemia obtained by clamping both renal arteries and veins for 25 min, followed by 24 h of reperfusion. Mice were anesthetized using xylazine (10 mg kg^–1)/ketamine (100 mg kg^–1) injected intraperitoneally. Sham treated mice were treated identically except for the temporary closure of the renal vessels. After 24 h, under reanesthesia, plasma was taken for biomarker analysis. Thereafter, mice still in deep anesthesia were sacrificed by cervical dislocation. Creatinine, BUN (blood urea nitrogen), NGAL (neutrophil gelatinase-associated lipocalin), osteopontin, and KIM1 (kidney injury molecule-1) levels were determined using the following commercially available standard assays: creatinine: Roche Diagnostics 03263991, BUN: Roche Diagnostics 04460715, NGAL: BioPorto, Kit046 + Kit042, osteopontin: R&D Systems, MOST00, KIM-1: Abnova, KA1064. To assess fibrotic effects, we used the unilateral ureteral obstruction (UOO) model in Sprague–Dawley rats.[49] For the UOO model, rats were sacrificed after 5, 8, and 11 days and the percentage of PicroSirius Red positive areas (indicator of collagen III–I deposition) were measured in 4 μm histological cross sections of the kidney after 2% paraformaldehyde perfusion fixation and paraffin embedding. The extend of kidney fibrosis was quantified based on PicroSirius Red staining of 10 renal sections about 1 mm apart from each kidney. The collagen–III-I-positive pixel counts were determined in the cortical aspect of each kidney section from 10 optical fields using a 40× objective. As the total area analyzed was identical for all kidneys under investigation, the absolute number of pixels was used as the relevant readout. Vehicle treated animals received saline gavage only. The details of PicroSirius Red staining were previously described.[22]

[2] = Lyophilization solubility assay (LYSA); type: physicochemical; conditions: aqueous buffer, thermodynamic from solid; kinetic, phosphate buffer pH 6.5
Procedure: For the determination of the octanol/water distribution coefficient (logD), the carrier-mediated distribution system (CAMDIS)-assay was used as described elsewhere.[38] Kinetic and thermodynamic solubilities were assessed using the lyophilization solubility assay (LYSA) and thermodynamic solubility assay (THESA), respectively. For the LYSA, the solubility of RNB- 61 in phosphate buffer at pH 6.5 from an evaporated 10 mM DMSO compound stock solution was measured. Two aliquots of the test compounds were dried and dissolved in phosphate buffer at pH 6.5. The solutions were then filtered and diluted (3 different dilution levels for each compound) before high throughput mass spectrometry (MS) analysis was performed in an Agilent RapidFire system. Each test compound was quantified using a 6-point calibration curve prepared with the same DMSO starting solution. For THESA, RNB-61 (8.6 mg per mL solvent/vehicle) was stirred in HPLC vials (9 × 12 × 32 mm, Waters) at 350 rpm for 15 h. The presence of solid particles was determined by microscopic analysis of 10 μL samples. If the active pharmacological ingredient (API) was completely dissolved, more solid API was added before stirring for another 15 h. This step was repeated for up to 96 h or until residual solid particles could be detected. […] The filtrates were diluted in ethanol and analyzed by ultra-performance liquid chromatography (UPLC). […]

[3] = Thermodynamic solubility assay (THESA), also in FaSSIF and FeSSIF; type: physicochemical; conditions: thermodynamic from solid
Procedure: For the determination of the octanol/water distribution coefficient (logD), the carrier-mediated distribution system (CAMDIS)-assay was used as described elsewhere.[38] Kinetic and thermodynamic solubilities were assessed using the lyophilization solubility assay (LYSA) and thermodynamic solubility assay (THESA), respectively. For the LYSA, the solubility of RNB- 61 in phosphate buffer at pH 6.5 from an evaporated 10 mM DMSO compound stock solution was measured. Two aliquots of the test compounds were dried and dissolved in phosphate buffer at pH 6.5. The solutions were then filtered and diluted (3 different dilution levels for each compound) before high throughput mass spectrometry (MS) analysis was performed in an Agilent RapidFire system. Each test compound was quantified using a 6-point calibration curve prepared with the same DMSO starting solution. For THESA, RNB-61 (8.6 mg per mL solvent/vehicle) was stirred in HPLC vials (9 × 12 × 32 mm, Waters) at 350 rpm for 15 h. The presence of solid particles was determined by microscopic analysis of 10 μL samples. If the active pharmacological ingredient (API) was completely dissolved, more solid API was added before stirring for another 15 h. This step was repeated for up to 96 h or until residual solid particles could be detected. Samples (0.5 mL) were transferred to Eppendorf Ultrafree filter tubes (Filter: PVDF 0.22 μm) and centrifuged at 14,500 rpm for 10 min. The filtrates were diluted in ethanol and analyzed by ultra-performance liquid chromatography (UPLC). Measurements were repeated in 0.05 M aqueous phosphate buffer and in fasted (FaSSIF) and fed (FeSSIF) simulated gastrointestinal fluids.

Microsomal clearance = type: in vitro ADME; conditions: rat, rat microsomes

Question: For `Cn1c(C(C)(C)C)cc(=NC(=O)c2cc(C(F)(F)F)ccc2OCC(C)(C)O)n1CC1CCC1` [RNB-61], which “inhibition of accumulation of collagen–III-I” value ([1]; 3 mg kg^–1, day 8) is on record?
Answer: Its value is 61%.

Question: What about the “collagen–III-I positive area vs vehicle” value ([1]; all three doses (printed 0.3, 3, and 3 mg kg^–1), day 8) of the same compound?
Answer: The value was “significant reduction”.

Question: And the solubility [2]?
Answer: The solubility was 194 µg/mL (≈ 403 µM).

Question: And the solubility at 15 h ([3]; aqueous buffer, read-out: aqueous solubility THESA)?
Answer: The solubility at 15 h was 316 µg/mL (≈ 656 µM).

Question: What about the solubility at 15 h ([3]; fassif, fasted simulated gastrointestinal fluid, read-out: solubility FaSSIF) of the same compound?
Answer: The solubility at 15 h was 630 µg/mL (≈ 1310 µM).

Question: What about the solubility at 15 h ([3]; fessif, fed simulated gastrointestinal fluid, read-out: solubility FeSSIF) of the same compound?
Answer: The solubility at 15 h was 1370 µg/mL (≈ 2850 µM).

Question: What about the microsomal CLint (Microsomal clearance; Table 1) of the same compound?
Answer: The microsomal CLint was less than 10 µL/min/mg.

Question: And the microsomal CLint (Microsomal clearance; Table 3)?
Answer: Its microsomal CLint is no more than 10 µL/min/mg.
